Assay results reported in US5358951A, “Angiotensin II receptor blocking 2, 3, 6 substituted quinazolinones” (American Cyanamid Company, priority 1993, dated 1994).

System: vasopressor response of angiotensin II
Test: AII Challenge: antagonism of angiotensin II vasopressor response
Format: in vivo
Settings: for inhibition in vivo at 1 mg/kg: Rattus norvegicus
Procedure, shortened: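 Percent antagonism is based on the systolic blood pressure rise (mmHg) to i.v. angiotensin II at 0.05 and 0.1 ug/kg. Each rat's own predose response was taken as 100%. Challenges were repeated from 30 to 300 min after i.v., i.p. or oral compound in cannulated conscious male SHR, 16-20 weeks old.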

**Q.** Which “Response Average Change” value (1 mg/kg P.O., AII 0.05 mcg/kg IV, 30 min post dose) does the source give for `CCCCc1nc2ccc(C3(CO)CC4CCCN4O3)cc2c(=O)n1Cc1ccc(-c2ccccc2-c2nnn[nH]2)cc1` (stereo not drawn) [Example 80, (Trans)-2-butyl-6-[hexahydro-2-(hydroxymethyl)-Pyrrolo[1,2-b]isoxazol-2-yl]-3-[[2'-[1H-tetrazol-5-yl)[1,1'-biphenyl]-4-yl]methyl-4(3H)quinazolinone] here?
**A.** Its value is 30 mmHg.

**Q.** What about the “Response Average Change” value (1 mg/kg P.O., AII 0.05 mcg/kg IV, 60 min post dose) of the same compound?
**A.** Its value is 15 mmHg.

**Q.** What about the “Response Average Change” value (1 mg/kg P.O., AII 0.05 mcg/kg IV, 90 min post dose) of the same compound?
**A.** The value was 22.5 mmHg.

**Q.** What about the “Response Average Change” value (1 mg/kg P.O., AII 0.05 mcg/kg IV, 120 min post dose) of the same compound?
**A.** The value was 10 mmHg.

**Q.** And the “Response Average Change” value (1 mg/kg P.O., AII 0.05 mcg/kg IV, 180 min post dose)?
**A.** Its value is 19 mmHg.

**Q.** And the “Response Average Change” value (1 mg/kg P.O., AII 0.05 mcg/kg IV, 240 min post dose)?
**A.** Its value is 17.5 mmHg.

**Q.** What about the “Response Average Change” value (1 mg/kg P.O., AII 0.05 mcg/kg IV, 300 min post dose) of the same compound?
**A.** The value was 30 mmHg.

**Q.** And the “Response Average Change” value (1 mg/kg P.O., AII 0.1 mcg/kg IV, 30 min post dose)?
**A.** Its value is 37.5 mmHg.

**Q.** And the “Response Average Change” value (1 mg/kg P.O., AII 0.1 mcg/kg IV, 60 min post dose)?
**A.** Its value is 32.5 mmHg.

**Q.** What about the “Response Average Change” value (1 mg/kg P.O., AII 0.1 mcg/kg IV, 90 min post dose) of the same compound?
**A.** The value was 27.5 mmHg.

**Q.** What about the “Response Average Change” value (1 mg/kg P.O., AII 0.1 mcg/kg IV, 120 min post dose) of the same compound?
**A.** The value was 22.5 mmHg.

**Q.** What about the “Response Average Change” value (1 mg/kg P.O., AII 0.1 mcg/kg IV, 180 min post dose) of the same compound?
**A.** Its value is 25 mmHg.

**Q.** And the “Response Average Change” value (1 mg/kg P.O., AII 0.1 mcg/kg IV, 240 min post dose)?
**A.** Its value is 25 mmHg.

**Q.** What about the “Response Average Change” value (1 mg/kg P.O., AII 0.1 mcg/kg IV, 300 min post dose) of the same compound?
**A.** The value was 27.5 mmHg.

**Q.** And the “Response Average Change” value (1 mg/kg i.v., AII 0.05 mcg/kg IV, 30 min post dose)?
**A.** Its value is 5 mmHg.

**Q.** And the “Response Average Change” value (1 mg/kg i.v., AII 0.05 mcg/kg IV, 60 min post dose)?
**A.** The value was 5 mmHg.

**Q.** What about the “Response Average Change” value (1 mg/kg i.v., AII 0.05 mcg/kg IV, 90 min post dose) of the same compound?
**A.** Its value is 9 mmHg.

**Q.** What about the “Response Average Change” value (1 mg/kg i.v., AII 0.05 mcg/kg IV, 120 min post dose) of the same compound?
**A.** The value was 12.5 mmHg.

**Q.** What about the “Response Average Change” value (1 mg/kg i.v., AII 0.05 mcg/kg IV, 180 min post dose) of the same compound?
**A.** The value was 12.5 mmHg.

**Q.** What about the “Response Average Change” value (1 mg/kg i.v., AII 0.05 mcg/kg IV, 240 min post dose) of the same compound?
**A.** The value was 20 mmHg.

**Q.** And the “Response Average Change” value (1 mg/kg i.v., AII 0.05 mcg/kg IV, 300 min post dose)?
**A.** The value was 16.5 mmHg.

**Q.** What about the “Response Average Change” value (1 mg/kg i.v., AII 0.1 mcg/kg IV, 30 min post dose) of the same compound?
**A.** Its value is 8.5 mmHg.

**Q.** What about the “Response Average Change” value (1 mg/kg i.v., AII 0.1 mcg/kg IV, 60 min post dose) of the same compound?
**A.** The value was 10 mmHg.

**Q.** What about the “Response Average Change” value (1 mg/kg i.v., AII 0.1 mcg/kg IV, 90 min post dose) of the same compound?
**A.** The value was 22.5 mmHg.

**Q.** And the “Response Average Change” value (1 mg/kg i.v., AII 0.1 mcg/kg IV, 120 min post dose)?
**A.** Its value is 17.5 mmHg.

**Q.** And the “Response Average Change” value (1 mg/kg i.v., AII 0.1 mcg/kg IV, 180 min post dose)?
**A.** The value was 17.5 mmHg.

**Q.** What about the “Response Average Change” value (1 mg/kg i.v., AII 0.1 mcg/kg IV, 240 min post dose) of the same compound?
**A.** The value was 22.5 mmHg.

**Q.** What about the “Response Average Change” value (1 mg/kg i.v., AII 0.1 mcg/kg IV, 300 min post dose) of the same compound?
**A.** The value was 30 mmHg.

**Q.** What about the inhibition in vivo at 1 mg/kg (iv, 0.5 h, 1 mg/kg i.v., AII 0.05 mcg/kg IV, 30 min post dose) of the same compound?
**A.** The inhibition in vivo at 1 mg/kg was 90%.

**Q.** And the inhibition in vivo at 1 mg/kg (iv, 0.5 h, 1 mg/kg i.v., AII 0.1 mcg/kg IV, 30 min post dose)?
**A.** Its inhibition in vivo at 1 mg/kg is 83%.

**Q.** What about the inhibition in vivo at 1 mg/kg (iv, 1 h, 1 mg/kg i.v., AII 0.05 mcg/kg IV, 60 min post dose) of the same compound?
**A.** The inhibition in vivo at 1 mg/kg was 90%.

**Q.** And the inhibition in vivo at 1 mg/kg (iv, 1 h, 1 mg/kg i.v., AII 0.1 mcg/kg IV, 60 min post dose)?
**A.** The inhibition in vivo at 1 mg/kg was 80%.

**Q.** What about the inhibition in vivo at 1 mg/kg (iv, 2 h, 1 mg/kg i.v., AII 0.05 mcg/kg IV, 120 min post dose) of the same compound?
**A.** The inhibition in vivo at 1 mg/kg was 76%.

**Q.** What about the inhibition in vivo at 1 mg/kg (iv, 2 h, 1 mg/kg i.v., AII 0.1 mcg/kg IV, 120 min post dose) of the same compound?
**A.** The inhibition in vivo at 1 mg/kg was 65%.

**Q.** And the inhibition in vivo at 1 mg/kg (iv, 3 h, 1 mg/kg i.v., AII 0.05 mcg/kg IV, 180 min post dose)?
**A.** The inhibition in vivo at 1 mg/kg was 76%.

**Q.** And the inhibition in vivo at 1 mg/kg (iv, 3 h, 1 mg/kg i.v., AII 0.1 mcg/kg IV, 180 min post dose)?
**A.** Its inhibition in vivo at 1 mg/kg is 65%.

**Q.** And the inhibition in vivo at 1 mg/kg (iv, 4 h, 1 mg/kg i.v., AII 0.05 mcg/kg IV, 240 min post dose)?
**A.** The inhibition in vivo at 1 mg/kg was 62%.

**Q.** What about the inhibition in vivo at 1 mg/kg (iv, 4 h, 1 mg/kg i.v., AII 0.1 mcg/kg IV, 240 min post dose) of the same compound?
**A.** Its inhibition in vivo at 1 mg/kg is 55%.

**Q.** And the inhibition in vivo at 1 mg/kg (iv, 5 h, 1 mg/kg i.v., AII 0.05 mcg/kg IV, 300 min post dose)?
**A.** The inhibition in vivo at 1 mg/kg was 69%.

**Q.** What about the inhibition in vivo at 1 mg/kg (iv, 5 h, 1 mg/kg i.v., AII 0.1 mcg/kg IV, 300 min post dose) of the same compound?
**A.** The inhibition in vivo at 1 mg/kg was 40%.

**Q.** And the inhibition in vivo at 1 mg/kg (iv, […], 1 mg/kg i.v., AII 0.05 mcg/kg IV, 90 min post dose)?
**A.** Its inhibition in vivo at 1 mg/kg is 83%.

**Q.** What about the inhibition in vivo at 1 mg/kg (iv, […], 1 mg/kg i.v., AII 0.1 mcg/kg IV, 90 min post dose) of the same compound?
**A.** Its inhibition in vivo at 1 mg/kg is 55%.

**Q.** And the inhibition in vivo at 1 mg/kg (po, 0.5 h, 1 mg/kg P.O., AII 0.05 mcg/kg IV, 30 min post dose)?
**A.** The inhibition in vivo at 1 mg/kg was 25%.

**Q.** What about the inhibition in vivo at 1 mg/kg (po, 0.5 h, 1 mg/kg P.O., AII 0.1 mcg/kg IV, 30 min post dose) of the same compound?
**A.** Its inhibition in vivo at 1 mg/kg is 6%.

**Q.** And the inhibition in vivo at 1 mg/kg (po, 1 h, 1 mg/kg P.O., AII 0.05 mcg/kg IV, 60 min post dose)?
**A.** Its inhibition in vivo at 1 mg/kg is 63%.

**Q.** And the inhibition in vivo at 1 mg/kg (po, 1 h, 1 mg/kg P.O., AII 0.1 mcg/kg IV, 60 min post dose)?
**A.** Its inhibition in vivo at 1 mg/kg is 19%.

**Q.** What about the inhibition in vivo at 1 mg/kg (po, 2 h, 1 mg/kg P.O., AII 0.05 mcg/kg IV, 120 min post dose) of the same compound?
**A.** The inhibition in vivo at 1 mg/kg was 75%.

**Q.** And the inhibition in vivo at 1 mg/kg (po, 2 h, 1 mg/kg P.O., AII 0.1 mcg/kg IV, 120 min post dose)?
**A.** The inhibition in vivo at 1 mg/kg was 44%.

**Q.** What about the inhibition in vivo at 1 mg/kg (po, 3 h, 1 mg/kg P.O., AII 0.05 mcg/kg IV, 180 min post dose) of the same compound?
**A.** Its inhibition in vivo at 1 mg/kg is 53%.

**Q.** What about the inhibition in vivo at 1 mg/kg (po, 3 h, 1 mg/kg P.O., AII 0.1 mcg/kg IV, 180 min post dose) of the same compound?
**A.** The inhibition in vivo at 1 mg/kg was 38%.

**Q.** What about the inhibition in vivo at 1 mg/kg (po, 4 h, 1 mg/kg P.O., AII 0.05 mcg/kg IV, 240 min post dose) of the same compound?
**A.** The inhibition in vivo at 1 mg/kg was 56%.

**Q.** And the inhibition in vivo at 1 mg/kg (po, 4 h, 1 mg/kg P.O., AII 0.1 mcg/kg IV, 240 min post dose)?
**A.** The inhibition in vivo at 1 mg/kg was 38%.

**Q.** What about the inhibition in vivo at 1 mg/kg (po, 5 h, 1 mg/kg P.O., AII 0.05 mcg/kg IV, 300 min post dose) of the same compound?
**A.** The inhibition in vivo at 1 mg/kg was 25%.

**Q.** What about the inhibition in vivo at 1 mg/kg (po, 5 h, 1 mg/kg P.O., AII 0.1 mcg/kg IV, 300 min post dose) of the same compound?
**A.** Its inhibition in vivo at 1 mg/kg is 31%.

**Q.** What about the inhibition in vivo at 1 mg/kg (po, […], 1 mg/kg P.O., AII 0.05 mcg/kg IV, 90 min post dose) of the same compound?
**A.** Its inhibition in vivo at 1 mg/kg is 44%.

**Q.** What about the inhibition in vivo at 1 mg/kg (po, […], 1 mg/kg P.O., AII 0.1 mcg/kg IV, 90 min post dose) of the same compound?
**A.** The inhibition in vivo at 1 mg/kg was 31%.
